Experiment: xn = mol fraction of the nth substance listed
Details: Liquid

CCCCCl [1-chlorobutane] + CCCCCC
mass density [kg/m3]
Details	x1 = 0.1099	x1 = 0.212	x1 = 0.2925	x1 = 0.316	x1 = 0.405	x1 = 0.4978	x1 = 0.5975	x1 = 0.6869	x1 = 0.8294	x1 = 0.9025
283.15 K, 100 kPa	688.16	707.78	724.14	728.91	747.8	768.4	791.4	813.19	849.71	869.66
283.15 K, 2500 kPa	690.51	710.17	726.49	731.23	750.19	770.77	793.76	815.54	852.04	871.97
283.15 K, 5000 kPa	692.85	712.52	728.83	733.62	752.56	773.13	796.11	817.89	854.38	874.31
283.15 K, 10000 kPa	697.27	716.94	733.31	738.08	757.05	777.64	800.62	822.39	858.86	878.8
283.15 K, 15000 kPa	701.44	721.17	737.55	742.33	761.32	781.91	804.89	826.69	863.18	883.07
283.15 K, 20000 kPa	705.42	725.18	741.57	746.36	765.38	785.99	808.98	830.8	867.28	887.19
283.15 K, 25000 kPa	709.18	728.95	745.4	750.17	769.24	789.87	812.89	834.7	871.21	891.13
283.15 K, 30000 kPa	712.77	732.59	749.06	753.86	772.94	793.59	816.62	838.47	875.01	894.92
283.15 K, 35000 kPa	716.2	736.03	752.55	757.33	776.47	797.15	820.23	842.08	878.63	898.57
293.15 K, 100 kPa	679	698.47	714.61	719.31	738.08	758.47	781.32	802.85	839.13	858.87
293.15 K, 2500 kPa	681.5	701.01	717.13	721.84	740.6	761	783.84	805.38	841.63	861.35
293.15 K, 5000 kPa	684.03	703.52	719.69	724.38	743.13	763.54	786.39	807.91	844.15	863.85
293.15 K, 10000 kPa	688.77	708.3	724.48	729.18	747.97	768.33	791.18	812.71	848.93	868.63
293.15 K, 15000 kPa	693.23	712.77	728.99	733.71	752.5	772.88	795.72	817.27	853.49	873.18
293.15 K, 20000 kPa	697.41	717.01	733.23	737.99	756.78	777.19	800.04	821.6	857.83	877.51
293.15 K, 25000 kPa	701.41	721.03	737.29	742.03	760.9	781.3	804.2	825.76	861.98	881.68
293.15 K, 30000 kPa	705.17	724.84	741.13	745.88	764.76	785.2	808.12	829.7	865.95	885.66
293.15 K, 35000 kPa	708.81	728.53	744.84	749.61	768.53	788.98	811.92	833.53	869.81	889.53
298.15 K, 100 kPa	674.32	693.72	709.76	714.52	733.09	753.4	776.16	797.59	833.73	853.37
298.15 K, 2500 kPa	676.93	696.34	712.38	717.11	735.72	756.03	778.78	800.23	836.3	855.94
298.15 K, 5000 kPa	679.56	698.96	715.02	719.75	738.37	758.67	781.41	802.86	838.91	858.53
298.15 K, 10000 kPa	684.48	703.92	719.98	724.72	743.38	763.66	786.38	807.84	843.87	863.49
298.15 K, 15000 kPa	689.11	708.6	724.66	729.39	748.1	768.37	791.12	812.57	848.59	868.18
298.15 K, 20000 kPa	693.45	712.95	729.06	733.8	752.52	772.82	795.57	817.04	853.07	872.66
298.15 K, 25000 kPa	697.55	717.1	733.24	737.94	756.74	777.05	799.82	821.3	857.35	876.94
298.15 K, 30000 kPa	701.45	721.06	737.22	741.91	760.75	781.09	803.9	825.39	861.46	881.06
298.15 K, 35000 kPa	705.16	724.8	741	745.72	764.57	784.94	807.76	829.27	865.37	884.99
303.15 K, 100 kPa	669.66	689.16	704.96	709.76	728.25	748.32	770.96	792.32	828.52	847.81
303.15 K, 2500 kPa	672.37	691.9	707.69	712.51	730.98	751.02	773.66	795.01	831.2	850.48
303.15 K, 5000 kPa	675.06	694.62	710.41	715.21	733.71	753.76	776.4	797.74	833.88	853.16
303.15 K, 10000 kPa	680.26	699.79	715.6	720.44	738.89	759.01	781.67	802.98	839.08	858.38
303.15 K, 15000 kPa	685.01	704.53	720.39	725.23	743.69	–	–	–	–	–

— the NIST ThermoML archive (doi:10.1021/je800012v)
